Data on 3 molecules can be found in patent US20250207109A1, “ENGINEERED SPLIT DHFR-BASED METHODS AND SYSTEMS FOR SELECTING CELLS THAT HAVE STABLY ACQUIRED A HETEROLOGOUS POLYNUCLEOTIDE” (DNA Twopointo, Inc., priority 2022, published 2025).

What all share (format): cell-based, human
One test relates to FKBP12.6tr_F36V. Nature of the test: Split DHFR complementation assay to show rimiducid-dependent dimerization. Conditions: cells expressing FKBP12.6tr_F36V-DHFR fragment fusions; rimiducid 100 nM, methotrexate 0.2 μM. The source says: The Split DHFR concept was employed as the basis of a test of whether a fragment of the human protein FKBP12.6 could dimerize in the presence of rimiducid. For this purpose, an F36V substitution was introduced into FKBP12.6 in an effort to render it sensitive to rimiducid-dependent dimerization as is the case for the paralogous protein FKBP12. See Clackson T, Yang W, Rozamus L W, Hatada M, Amara J F, Rollins C T, Stevenson L F, Magari S R, Wood S A, Courage N L, Lu X, Cerasoli F, Gilman M, Holt D A. Redesigning an FKBP-ligand interface to generate chemical dimerizers with novel specificity. Proc Natl Acad Sci USA. 1998; 95 (18): 10437-42. doi: 10.1073/pnas.95.18.10437.
The truncated version of FKBP12.6 carrying the F36V substitution (SEQ ID NO: 192) was fused at its carboxy terminus to the two fragments of murine DHFR as in Example 1, with one of the fragments bearing the L22F and F31S substitutions to confer methotrexate resistance (SEQ ID NOs: 190 and 191). […]
(§1) At left is the result for cells expressing the DHFR fragments fused to the P7A/P8A heterodimerizing coiled-coil peptides. […] Untransfected cells were analyzed under identical conditions as a control (at right).

A further test concerns Jurkat T lymphoma cells. Nature of the test: Methotrexate selection of Jurkat cells co-transfected with pairs of transposons encoding mouse split DHFR fragments, flow cytometry for mTagBFP2/plobRFP. Conditions: 0.1 μM methotrexate; compared with coiled coil pairs. The source says: Transgenes encoding the six DHFR fusion proteins regulated by the EF1-alpha promoter were each placed in a Leap-In transposon vector that also included a transgene encoding a fluorescent protein. For the transposons expressing the amino-terminal piece of DHFR, the fluorescent protein was mTagBFP2. For the transposons expressing the carboxy-terminal piece, the fluorescent protein was plobRFP. These fluorescent protein transgenes were included so that cells carrying the two kinds of transposons could be readily identified by flow cytometry or fluorescent microscopy.
Jurkat T lymphoma cells were transfected with the appropriate pairs of transposons (i.e., transposons encoding both an amino- and carboxy-terminal piece of DHFR fused to leucine zipper or coiled coil sequences that should associate stably with one another). The ThermoFisher Neon® electroporator was used with 100 μl tips and three pulses of 1350V, each pulse 10 mS in length. […]
Successful methotrexate selection of cells carrying both transfected transposons was evident by the fact that the majority of cells expressed both mTagBFP2 and plobRFP. The cells were analyzed at ten days or six weeks after transfection as indicated.
On the technique in general: A flow cytometer gives signals particle by particle.

Another test has as its system Jurkat cells. As to the kind of experiment: Split DHFR complementation assay, methotrexate selection of Jurkat cells expressing DHFR fragment fusion proteins. Conditions: 0.2 μM methotrexate, two weeks; rimiducid 100 nM for FKBP12.6tr pair.
Text: The truncated version of FKBP12.6 carrying the F36V substitution (SEQ ID NO: 192) was fused at its carboxy terminus to the two fragments of murine DHFR as in Example 1, with one of the fragments bearing the L22F and F31S substitutions to confer methotrexate resistance (SEQ ID NOs: 190 and 191).
As a control, the P7A/P8A pair of DHFR fragment fusion proteins (involving SEQ ID Nos: 188 and 189) was also used. Whereas the P7A/P8A pair of constructs co-expressed the DHFR fragments with a red fluorescent protein (RFP; plobRFP) or a blue fluorescent protein (BFP; mTagBFP2), both FKBP12.6 tr transposons carried a BFP transgene.
Jurkat cells were co-transfected by electroporation (ThermoFisher Neon; 100 μl tips; 1350V, three 10 ms pulses) with pairs of plasmids carrying transposons encoding the two DHFR fragments (7.5 μg of each) together with mRNA encoding the Leap-In Transposase® enzyme (2 μg). The cells were plated in RPMI-1640 medium supplemented with fetal bovine serum (10% vol/vol) and methotrexate (0.2 μM). Rimiducid at 100 nM was added to the medium of cells that had been transfected with the FKBP12.6tr pair of plasmids.
as §1

Consider `CC[C@H](C(=O)N1CCCC[C@H]1C(=O)O[C@H](CCc1ccc(OC)c(OC)c1)c1cccc(OCC(=O)NCCNC(=O)COc2cccc([C@@H](CCc3ccc(OC)c(OC)c3)OC(=O)[C@@H]3CCCCN3C(=O)[C@@H](CC)c3cc(OC)c(OC)c(OC)c3)c2)c1)c1cc(OC)c(OC)c(OC)c1` [rimiducid], for which the “rimiducid dependence of survival in methotrexate” value in the test on FKBP12.6tr_F36V is reported as “the cells failed to thrive when the drug was removed”. In the case of “leucine zipper pair of constructs: GCN4 Leucine Zipper-Linker-Mouse DHFR (1-105; L22F/F31S) and (106-186) fusion pair”, the “average level of red and blue fluorescence of selected cells” value in the test on Jurkat T lymphoma cells was “higher average level of both red and blue fluorescence than the pairs involving the coiled coil sequences”.

B1: P7A/P8A coiled coil fusion proteins: P7A / P8A Coiled Coil-Linker-Mouse DHFR (1-105; L22F/F31S) and (106-186) fusion pair (protein)
chain 1: MGEIAALEAKNAALKAEIAALEAKNAALKAGCGGGGSGGGGSVRPLNCIVAVSQNMGIGKNGDFPWPPLRNESKYFQRMTTTSSVEGKQNLVIMGRKTWFSIPEKNRPLKDRINIVLSRELKEPPRGAHFLAKSLDDALRLIEQPEL
chain 2: MKIAALKAENAALEAKIAALKAENAALEAGGCGGGGSGGGGSASKVDMVWIVGGSSVYQEAMNQPGHLRLFVTRIMQEFESDTFFPEIDLGKYKLLPEYPGVLSEVQEEKGIKYKFEVYEKKD
Take B1: the “methotrexate resistance / survival of transfected cells” value in the test on Jurkat cells is “conferred methotrexate resistance on the transfected cells”.
